Measurements reported in US10415057B2, “Pseudotyping of retroviral vectors, methods for production and use thereof for targeted gene transfer and high throughput screening” (BUNDESREPUBLIK DEUTSCHLAND, LETZ[…], priority 2006, dated 2019).

Tested on: CD20 positive Raji cells
Test: Selective transduction and Gancyclovir killing of CD20 positive Raji cells in a Raji/K-562 mixture
Conditions: 10 μM GCV; gfp transduced cells
Method: The mutation of the MeV H protein comprises the four point mutations Y481A, R533A, S548L and F549S which ablates productive interactions with CD46 and SLAM, respectively. […] Furthermore, transduced cells can be detected by CD34 expression. In parallel, as a control, the same vector particles having packaged the go gene were applied.
For the generation of the vector particles calcium phosphate transfection was performed. 24 h before transfection, 6.5*10^6 HEK-293T cells were seeded into a T75 flask. 1 h before transfection the medium of the cells was exchanged against 7 ml fresh medium (DMEM with 4.5 g/l glucose, 3.7 g/l NaHCO3, 10% FCS, 1% glutamin). […]
The HmutscFvCD20Δ18/FcΔ30 pseudotyped HIV-1 vector particles either with packaged go gene or with packaged cd34tk39 gene were 1:5 diluted in 300 μl medium (RPMI 1640 with 2 g/l NaHCO3, 10% FCS, 1% glutamine) containing a mixture of 2*10^3 CD20+ Raji and 2*10^3 CD20− K-562 cells. […] Afterwards the percentages of CD20/GFP and CD20/CD34 double positive cells, respectively, were measured by FACS (time point 0 h in FIG. 18). […] At different time points the cells were stained with the respective antibodies and the double positive cells were measured by FACS (Dako Galaxy flow cytometry system; s. FIGS. 18A-18B).

Nc1nc(O)c2ncn(COC(CO)CO)c2n1 [GCV, Gancyclovir]
Toxic effect of GCV by its own on the cells (CD20/GFP double positive fraction): no toxic effect
